Laboratory results reported in paper PMC9167309, “Multiple-reaction monitoring (MRM) LC–MS/MS quantitation of venlafaxine and its O-desmethyl metabolite for a preclinical pharmacokinetic study in rabbits” (Scientific Reports, 2022).

How the values were obtained:
[1] = Preclinical PK study: plasma VEN and ODV after a single oral dose of ER formulations, LC-MRM-MS/MS, noncompartmental analysis; format: in vivo, New Zealand White rabbits; details: throughout the sampling period (36 h); after oral optimized ER tablet and RLD; above LOQ
Method: Four pairs (male/female) of healthy rabbits, each weighing 3–4 kg, were provided by Government Rabbit Farm, Wussan (Pattan), Kashmir. The rabbits were divided into a reference group and a test group. […] The resulting plasma samples were frozen at − 40 °C until further analysis.
The PK evaluation summarized in Table 11 was carried out by way of noncompartmental analysis (NCA) using WinNonlin 8.1 and the additional statistical computations were performed in SAS 9.4. […] The statistical assurance of bioequivalent similarity given in Table 12 was computed using analysis of variance on log-transformed PK parameters (Cmax, AUClast, and AUCINF_obs) of reference and test product.

dopamine reuptake = test system: dopamine reuptake; design: method as in doi:10.2165/00023210-200014060-00006; details: cited from earlier work
serotonin reuptake = details: cited from earlier work
noradrenaline reuptake = test system: noradrenaline reuptake; design: method as in doi:10.2165/00023210-200014060-00006; details: cited from earlier work

Compound | plasma concentrations [1] [ng/mL] | inhibition of dopamine reuptake (dopamine reuptake) | inhibition of serotonin reuptake (serotonin reuptake) | inhibition of noradrenaline reuptake (noradrenaline reuptake)
CN(C)CC(c1ccc(O)cc1)C1(O)CCCCC1 (stereo not shown) [ODV, O-desmethylvenlafaxine] | > 0.5 | weakly inhibit | potent inhibitors | potent inhibitors
COc1ccc(C(CN(C)C)C2(O)CCCCC2)cc1 (racemic) [VEN, (RS) 1-[2-(dimethylamino)-1-(4-methoxyphenyl)ethyl]cyclohexanol] | > 0.5 | weakly inhibit | – | potent inhibitors
